{
  "source": "paper PMC4026528",
  "about": "(PLoS ONE, 2014)",
  "key": {"[1]": {"test_system": "U2OS (osteosarcoma) cells", "assay": "Soft agar assay (anchorage-independent growth), U2OS", "format": "cell-based, human", "description": "(§1) Soft agar assay and analysis was carried out as previously described. For scratch assay, confluent monolayer of U2OS and HT-1080 cells were subjected to scratch using a sterile pipette tip. Wounded monolayers were washed to remove debris and incubated with SEN461 at different concentrations for 20 hours. After the incubation period, images were taken under an Axiovert 200M (Zeiss) microscope equipped with a CCD camera, and the gap width was measured using MetaMorph 6.3 software (Universal Imaging Corp.) to calculate the area covered by cells (pixels unit). The tube formation assay was performed using growth factor-reduced Matrigel from BD (BD Biosciences; San Jose, CA, USA). Matrigel was thawed overnight at 4°C and was diluted (1∶1) with phenol red-free DMEM without serum. 100 µl of the diluted matrigel was used to coat the wells of a 96 well plate and was allowed to polymerize for 2 hours at 37°C. After equilibrating the gel with the complete growth medium, 15×10^3 cells were seeded in each well and incubated for 20 hours. The tube formation was monitored under a phase contrast microscope (Axiovert 200, Zeiss) and imaged using MetaMorph system (Universal Imaging Corp)."}, "[2]": {"test_system": "Wnt transcriptional activity in HT-1080 cells", "assay": "TCF Wnt reporter assay in HT-1080", "format": "cell-based, human", "settings": "HT-1080, data not shown", "from_the_text": "(§2) The generation of TCF-Luciferase and TA-Renilla reporter plasmids as well as IC50 determination and calculation was reported previously. Human AXIN1 and WNT3A cDNAs were purchased from Origene as “transfection ready” plasmids. Dominant negative TCF4 cDNA was purchased from Upstate. Luciferase reporter of the nucleolin promoter (pNucL14) and FLAG-c-Myc expressing vector were from B. Amati. Luciferase reporter of the Hes5 promoter and Notch1-IC expressing vector were from I. Screpanti. Lentiviral vectors for inducible dominant negative TCF4 (rLV-EF1-tTS, rLV-EF1-rtTA and rLV-TRE-CMV-HA-TCF4DN) were purchased from Vectalys.\n(§3) Transfections were carried out using Lipofectamine 2000 (Invitrogen) according to the manufacturer’s instructions. Lentiviral expression of TCF-Luc, TA-Renilla, and the inducible dominant negative TCF4, were carried out following Vectalys instructions. For reporter assays, luciferase activities were performed as described previously."}, "[3]": {"test_system": "Wnt target gene mRNA in U2OS cells", "assay": "Quantitative RT-PCR of Wnt target genes in U2OS", "format": "cell-based, human", "description": "RNA extraction and quantitative RT-PCR (qPCR) expression analysis was performed as described previously. Gene expression analysis was performed using the human housekeeping gene RPL13A. Primers for the hAXIN2, hCDC25A, hc-MYC, hFZD4, hDVL2, hCSNK1G and hVEGF-A were the following: Fw: 5′-CAAGGGCCAGGTCACCAA-3′ Rv: 5′-CCCCCAACCCATCTTCGT-3′; Fw: 5′-[…]-3′ Rv: 5′-[…]-3′; Fw: 5′-GGCTCCTGGCAAAAGGTCA-3′ Rv: 5′-[…]-3′; Fw: 5′-[…]-3′ Rv: 5′-[…]-3′; Fw: 5′-[…]-3′ Rv: 5′-GTCTCCCCGCTCATTGCTC-3′; Fw: 5′-[…]-3′ Rv: 5′-[…]-3′; Fw: 5′-[…]-3′ Rv: 5′-[…]-3′."}, "[4]": {"test_system": "Axin1, c-Myc, p21 protein in HT-1080 cells", "assay": "Western blotting in HT-1080", "format": "cell-based, human", "settings": "HT-1080, overnight"}, "[5]": {"test_system": "Axin1 and β-catenin in 143B osteosarcoma cells", "assay": "Western blotting in 143B", "format": "cell-based, human"}, "U2OS cells": {"test_system": "U2OS cells", "assay": "Scratch assay (motility), U2OS", "format": "cell-based, human", "settings": "20 hours", "description": "as §1"}, "[6]": {"test_system": "Myc transcriptional activation in HT-1080 cells", "assay": "Nucleolin promoter (pNucL14) luciferase reporter, HT-1080", "format": "cell-based, human", "settings": "HT-1080, pNucL14 ± FLAG-c-Myc", "from_the_text": "as §2, §3"}, "[7]": {"test_system": "Notch signaling in HEK293 cells", "assay": "Hes5 promoter luciferase reporter with Notch1-IC, HEK293", "format": "cell-based", "settings": "HEK293, Notch1-IC stimulation, data not shown", "from_the_text": "as §2, §3"}, "[8]": {"assay": "Plasma and tumor exposure in HT-1080 xenograft mice", "format": "in vivo, female Crl:CD-1 nude mice", "settings": "30 mg/kg BID PO", "description": "Female athymic nude mice (6 weeks old, Crl:CD-1 nude mice) were obtained from Charles River Italia (Calco, Italy). HT-1080 cells (6×10^∧6 cells) were resuspended in 200 µl of PBS 1X and injected subcutaneously in the right flank of the mice. Body weight and tumor measurements (using a digital caliper) were performed twice a week. Randomization was performed on day 12 after cell injection by comparing tumor mass and treatments started on day 13 when tumors reached a median size of 246 mm^3 (range = 230–268 mm^3). SEN461 was formulated in 0.5% w/v Methocel in MilliQ water and administered PO by oral gavage twice a day at 30 mg/kg for seven consecutive days in a total of 15 animals (n = 5 for each time point). Control animals (n = 5) were administered with the vehicle for the same time period. On treatment day 19, the mice were euthanized under inhalant anesthesia with isoflurane and tumor and blood samples were collected at three different time points (1–4–8 h, n = 5 animals for each time point) after last treatment and subjected to gene expression analysis and compound quantification. All mice were maintained in a conventional-specific-pathogen-free facility according to the NIH guidelines using an approved Animal Care and Use Committee protocol. During all the experimental time period, mice were housed (5 animals/cage) in individually ventilated solid floor plastic cages (Sealsafe Plus GR500, Tecniplast-Gazzada (VA) – Italy) using as bedding the Sawdust SCOBIS UNO by MUCEDOLA S.r.l (via Galileo Galilei 4, 20019 Settimo Milanese, Milano, Italy). Cages were maintained at a temperature of 20–24°C and humidity of 40–70% (Siemens Desigo Apparatus ver. 4.1) with 70 air changes/hour in the cage (10–15 air changes/hour in the room). Animals were subjected to a 12-hour light/12-hour dark cycle and have free access to a standard pelleted commercial laboratory diet (Certified Rodent irradiated 4RF21– Mucedola, Italy) and to municipal tap water, purified by reverse osmosis and autoclaved. The study was conducted in compliance with Decreto Legislativo January 27, 1992, N. 116, Gazzetta Ufficiale N. 40 February 18, 1992, (Directive N. […]) concerning protection of animals used for scientific purposes. The project was authorized by the Italian Institute of Health (48/2009/B). The experimental protocol was rewieved and approved by the Internal Ethical Committee."}},
  "note": "Where “and” joins values, the source holds several entries; their conditions need not be identical. Equal values may be shown once.",
  "data": [
    {"smiles": "COCC(=O)N1CCN(C(=O)C2CCC(Cn3c(=O)c4cc(OC)ccc4n(C)c3=O)CC2)CC1", "note": "(centres unmarked) [SEN461]", "values": [
      {"measurement": "IC50", "setting": "[1]", "value": 300, "unit": "nM"},
      {"measurement": "Wnt transcriptional modulation (TCF reporter)", "setting": "[2]", "value": "did not find any Wnt transcriptional modulation"},
      {"measurement": "CSNK1G mRNA", "setting": "[3]; 10 µmol/L", "value": "down-modulation"},
      {"measurement": "DVL2 mRNA", "setting": "[3]; 10 µmol/L", "value": "down-modulation"},
      {"measurement": "FZD4 mRNA", "setting": "[3]; 10 µmol/L", "value": "down-modulation"},
      {"measurement": "AXIN2 mRNA", "setting": "[3]; 10 µmol/L, 2 or 24 h", "value": "comparable down-regulation"},
      {"measurement": "CDC25A mRNA", "setting": "[3]; 10 µmol/L, 2 or 24 h", "value": "comparable down-regulation"},
      {"measurement": "AXIN2 mRNA induced by Wnt3a CM", "setting": "[3]; Wnt3a CM stimulation", "value": "inhibited"},
      {"measurement": "c-MYC mRNA", "setting": "[3]; overnight treatment", "value": "unaffected"},
      {"measurement": "Axin1 protein level", "setting": "[4]", "value": "robust concentration dependent stabilization"},
      {"measurement": "CDK inhibitor p21 protein level", "setting": "[4]", "value": "up-regulation"},
      {"measurement": "c-Myc protein level", "setting": "[4]", "value": "down-modulation of c-Myc"},
      {"measurement": "Axin1 protein level", "setting": "[5]", "value": "Axin1 stabilization"},
      {"measurement": "cytoplasmic β-catenin total level", "setting": "[5]", "value": "down-regulation of total level of cytoplasmic β-catenin"},
      {"measurement": "cellular motility (two-dimensional scratch assay)", "setting": "U2OS cells", "value": "neither U2OS nor HT-1080 cells showed inhibition of motility"},
      {"measurement": "Myc mediated activation / basal activity of nucleolin reporter", "setting": "[6]", "value": "did not affect"},
      {"measurement": "Notch signaling (Hes5 promoter luciferase)", "setting": "[7]", "value": "did not detect any transcriptional effects"},
      {"measurement": "Ctumor/plasma", "setting": "[8]; day 7, 1 h", "value": 0.23},
      {"measurement": "Cplasma", "setting": "[8]; day 7, 1 h after last dose", "value": "6.6 µmol/L and 6.62 ± 2.08 µmol/L"},
      {"measurement": "Ctumor", "setting": "[8]; day 7, 1 h after last dose", "value": "1.5 µmol/L and 1.54 ± 0.35 µmol/L"},
      {"measurement": "Ctumor/plasma", "setting": "[8]; day 7, 4 h", "value": 0.23},
      {"measurement": "Cplasma", "setting": "[8]; day 7, 4 h after last dose", "value": "2.57 ± 0.08", "unit": "µmol/L"},
      {"measurement": "Ctumor", "setting": "[8]; day 7, 4 h after last dose", "value": "0.58 ± 0.08", "unit": "µmol/L"},
      {"measurement": "Ctumor/plasma", "setting": "[8]; day 7, 8 h", "value": 0.17},
      {"measurement": "Cplasma", "setting": "[8]; day 7, 8 h after last dose", "value": "0.57 ± 0.19", "unit": "µmol/L"},
      {"measurement": "Ctumor", "setting": "[8]; day 7, 8 h after last dose", "value": "0.10 ± 0.02", "unit": "µmol/L"}
    ]}
  ]
}
